# Source: patent US3954793A, “1-(2-Propynyl)-1 H-indazole compounds” (priority 1973, dated 1976)
# Columns and labels:
# [1] = tested on: IN/WHO strain house flies; assay: topical application, percent kill after 24 hours, susceptible IN/WHO strain; format: in vivo, female); settings: for percent kill after 24 hours, synergist alone: insecticide 0, synergist 1 μg/fly
# Protocol: (§1) In Table IX, and in the tables following it, the doses of topically applied insecticides and of synergists unless otherwise noted are expressed as micrograms per fly (μg/fly).
# (§2) The synergistic effect of O-(2-propynyl) oximes with mobam was determined from topical application tests on susceptible, female, IN/WHO strain house flies and from tests on resistant, female, Rutgers A strain house flies. The synergist and insecticide were dissolved in ACS Grade acetone in such quantities that a 1.0 μ liter volume applied to the thorax of 3-to-5 day old CO2 -anesthetized female adult house flies contained the desired dosage. After being treated, the flies were confined, 10 to a plaster petri dish, with 3-5 dishes/treament, and held for 24-hr. observation of mortality. Reconstituted skim milk on cotton dental wicks was provided during the holding period. The percent kills after 24 hours are shown in Table X for the IN/WHO strain and Table XI for the Rutgers A strain.
# (§3) The synergistic effect of benzyl 2-propynyl ethers with mobam was determined from topical application tests on IN/WHO and Rutgers A strain houseflies, following the procedure of Example 5. The percent kills after 24 hours are shown in Table XIV for the IN/WHO strain and in Table XV for the Rutgers A strain.
# The effects of varying the insecticide dose and the synergist-insecticide ratio are further illustrated, with synergist compounds II-D, II-E, II-F and Mobam insecticide, in Tables XVI, XVII and XVIII. […]
# The effect on IN/WHO flies of synergist compound IV-C, identified in Table IV, with mobam was determined by the topical application procedure of Example 5. […]
# (§4) The synergistic effect with GS 13005 of compounds I-A, I-B, I-D, I-E, I-F, I-G and I-I was determined from topical application tests to IN/WHO strain, Rutgers A strain and polyvalent CH strain houseflies using the procedures of Example 5. The percent kills of the IN/WHO strain flies after 24 hours are shown in Table XXVIII; of the Rutgers A strain, in Table XXIX; and of the polyvalent CH strain, in Table XXX. The doses of insecticide alone to the CH strain files caused 10-40% mortality.
# The synergistic effect with Diazinon and GS 13005 of various of the benzyl 2-propynyl ethers identified in Tables II and IIa was determined by topical application tests on IN/WHO strain, and Rutgers A strain and polyvalent, resistant, CH strain houseflies using the procedures of Example 5. The percent kills after 24 hours of IN/WHO strain flies are shown in Table XXXI; of Rutgers A strain flies, in Table XXXII; and of CH strain flies, in Table XXXIII. The doses of insecticide alone to the CH strain flies caused 10-40% mortality. […]
# (§5) The synergistic effect on IN/WHO strain flies and Rutgers A strain flies of compound IV-C with GS 13005 and with Diazinon was determined by the topical application procedure of Example 5. The percent kills of IN/WHO strain flies after 24 hours are shown in Tables XXXVI and XXXVII; the percent kills of Rutgers A strain flies are shown in Tables XXXVIII and XXXIX.
# [2] = tested on: Rutgers A strain house flies; assay: topical application, percent kill after 24 hours, resistant Rutgers A strain; format: in vivo, female)
# Protocol: as §1, §2, §3
# The synergistic effect with Diazinon of compounds I-B, I-D, I-F, I-G, I-H and I-I, identified in Tables I and Ia, was determined from topical application tests on IN/WHO strain houseflies and on Rutgers A strain houseflies by the procedure of Example 5. The percent kills after 24 hours are shown in Table XXV for the IN/WHO strain and Table XXVI for the Rutgers A strain.
# as §4
# The synergistic effect with Diazinon and GS 13005 of various of the benzyl 2-propynyl ethers identified in Tables II and IIa was determined by topical application tests on IN/WHO strain, and Rutgers A strain and polyvalent, resistant, CH strain houseflies using the procedures of Example 5. The percent kills after 24 hours of IN/WHO strain flies are shown in Table XXXI; of Rutgers A strain flies, in Table XXXII; and of CH strain flies, in Table XXXIII. The doses of insecticide alone to the CH strain flies caused 10-40% mortality.
# as §5
# [3] = tested on: Swiss albino, white male mice; assay: acute toxicity and synergism of acute toxicity in mice; format: in vivo; settings: 48 hours, eight mice
# Protocol: To determine the acute toxicity of dimetilan alone, eight dosage levels of Dimetilan, ranging from 4 to 32 mg per kg were applied to eight, Swiss, albino, white, male mice per dosage level. The mice weighed approximately 23 to 27 grams and were five to six weeks old. The Dimetilan was administered intraperitoneally in 0.1 ml of corn oil one hour after the administration of the same dose of corn oil alone.
# To determine the acute toxicity of the synergist alone, various synergists were administered intraperitoneally at a dose of 1000 mg/kg to each of a group of eight mice. The number of animals dead at the end of 72 hours is reported in the left hand column of Table XXXXVI.
# The synergism of the acute toxicity of Dimetilan by various synergists was determined by tests on Swiss albino, white male mice aged five to six weeks and weighing 23 to 27 grams. The synergists and insecticides were dissolved in corn oil and the drugs were dissolved in distilled water. All compounds were administered intraperitoneally by injection in the lower quadrent of the abdomen. The synergist was administered in 0.1 ml of corn oil one hour prior to administration of the insecticide. Eight mice were treated, per dosage, with each synergist. The mice were watched for a minimum of 6 hours while held in a glass jar with bedding individually after intraperitoneal injection of the test solutions. Lethality was noted, the animals were weighed and transferred in cages, and food and water were supplied. Control mice were given 0.1 ml of corn oil at the time of administration of the synergist to the test mice and 0.1 ml corn oil plus Dimetilan at the time of administration of the insecticide to the test mice.
# By the same procedure, the synergism of acute toxicity of GS 13005, Secobarbital and 6-dimethylamino-4,4-diphenyl-3-heptanone [Methadone] was determined.
# male mice = assay: extension of sleeping time of depressant drugs by synergists; format: in vivo, male mice (Swiss albino white); settings: for Mean Sleeping Time, Secobarbital / Relative Sleeping Time, Secobarbital: Secobarbital 37 mg/kg
# Protocol: The selectivity of the synergist compounds of this invention is illustrated by the results of sleeping-time extension tests and of acute toxicity tests on Swiss albino white male mice.
# The effect of various synergist compounds on sleeping time of sodium secobarbital [Secobarbital] and of 3,3-diethyl-5-methyl-2,4-dioxypiperidine [Noludar] was determined by administering the drug, with and without synergist, to approximately 38-day old male mice weighing from 25 to 30 grams. Synergists were administered in each of two doses, 74.0 mg/kg (dilution being 2.0 mg/0.1 ml corn oil), and 110.0 mg/kg (dilution 3.0 mg/0.1 ml oil). Secobarbital was administered at a dose of 37.0 mg/kg (dilution 1.0 mg/0.1 ml water). Noludar was administered at a dose of 110.0 mg/kg (dilution 3.0 mg/0.1 ml water). The synergist was administered one hour prior to administration of the Secobarbital or Noludar. Secobarbital and Noludar sleeping times were obtained for both the control (drug only) and the treated (synergist plus drug) mice by noting the time lapse between the administration of the drug and the recovery of the righting reflex, i.e. when the animal regains conciousness and can walk up an inclined wooden tray with coordination. The relative sleeping time (R.S.) was noted. The R.S. is the extended sleeping time in the treated mice (synergist plus drug) divided by the sleeping time in the control mice (drug only). The mean sleeping time for the treated mice and the R.S. are shown on Table XXXXIV for various synergist compounds.
structure (smiles),measurement,setting,value
"CNC(=O)Oc1ccccc1OC(C)C [Baygon, o-isopropoxyphenyl methylcarbamate, reference compound]","24 hour percent mortality, insecticide alone",[1]; insecticide 0.125 μg/fly (Table XXI),0%
"COP(=O)(OC)O/C(C)=C/C(=O)N(C)C [Bidrin, 3-hydroxy-N,N-dimethyl-cis-crotonamide, dimethyl phosphate, reference compound]","24 hour percent mortality, Bidrin alone",[1]; Bidrin 0.063 μg/fly,0%
same,"24 hour percent mortality, Bidrin alone",[1]; Bidrin 0.13 μg/fly,0%
"COP(=O)(OC)OC(=CCl)c1cc(Cl)c(Cl)cc1Cl [Gardona, 2-chloro-1-(2,4,5-trichlorophenyl) vinyl dimethyl phosphate, reference compound]","24 hour percent mortality, Gardona alone",[1]; Gardona 0.031 μg/fly,13%
same,"24 hour percent mortality, Gardona alone",[1]; Gardona 0.063 μg/fly,73%
same,"24 hour percent mortality, Gardona alone",[1]; Gardona 0.125 μg/fly,100%
C#CCON=Cc1ccc(Cl)cc1 [I-H],"percent kill after 24 hours, with Diazinon",[1]; Diazinon 0.02 + synergist 0.10 μg/fly,47%
same,"percent kill after 24 hours, synergist alone",[1],0%
same,"percent kill after 24 hours, with Diazinon",[2]; Diazinon 1.5 + synergist 7.5 μg/fly,80%
same,"percent kill after 24 hours, with Diazinon",[2]; Diazinon 3.0 + synergist 15 μg/fly,100%
same,"percent kill after 24 hours, synergist alone","[2]; insecticide 0, synergist 7.5 μg/fly",0%
same,"percent kill after 24 hours, synergist alone","[2]; insecticide 0, synergist 15 μg/fly",0%
C#CCOCc1cccc(Cl)c1[N+](=O)[O-] [II-I],"percent kill after 24 hours, synergist alone (GS 13005 part of Table XXXI)","[1]; GS 13005 0, synergist 1 μg/fly",7%
same,"percent kill after 24 hours, with GS 13005",[1]; GS 13005 0.10 + synergist 0.50 μg/fly,99%
same,"percent kill after 24 hours, with Mobam",[1]; Mobam 0.20 + synergist 1 μg/fly,97%
same,"percent kill after 24 hours, synergist alone",[1],7%
same,"number of mice dead, with Dimetilan",[3]; Dimetilan 8 + synergist 80 mg/kg i.p.,0
same,"number of mice dead, with Dimetilan",[3]; Dimetilan 8 + synergist 240 mg/kg i.p.,3
same,"percent kill after 24 hours, with GS 13005",[2]; GS 13005 1.0 + synergist 5.0 μg/fly,83%
same,"percent kill after 24 hours, with Mobam",[2]; Mobam 0.40 + synergist 2.0 μg/fly,37%
same,"percent kill after 24 hours, synergist alone","[2]; insecticide 0, synergist 5.0 μg/fly",3%
same,"Mean Sleeping Time, Noludar","male mice; Noludar 110 mg/kg, synergist 110 mg/kg one hour prior",56 min
same,"Relative Sleeping Time, Noludar","male mice; Noludar 110 mg/kg, synergist 110 mg/kg, treated/control",1.8
same,"Mean Sleeping Time, Secobarbital",male mice; synergist 74 mg/kg one hour prior,31 min
same,"Relative Sleeping Time, Secobarbital","male mice; synergist 74 mg/kg, treated/control",1.2
same,"Mean Sleeping Time, Secobarbital",male mice; synergist 110 mg/kg one hour prior,32 min
same,"Relative Sleeping Time, Secobarbital","male mice; synergist 110 mg/kg, treated/control",1.3
